We go through 24 molecules from patent publication US20250215029A1 (Recludix Pharma, Inc., priority 2022, published 2025).

The target in assay [1] is T1, Recombinant STAT3 protein (STAT3 (G127-I722)) (Homo sapiens, UniProt P40763).
T1 construct: Recombinant STAT3 protein (STAT3 (G127-I722))
Put plainly: STAT3 Fluorescence Polarization (FP) Assay. The assay is classed as binding. The conditions noted are these: STAT3 (G127-I722) 25 nM, probe 5-FAM-GpYLPQTV-NH2 2 nM, 45-minute incubation; read-out: STAT3 (FP assay IC50 class). Put shortly:
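Read-out is fluorescence polarization (mP) after 45 min at room temperature, with IC50 fitted by nonlinear regression against log compound concentration. Mixture: 25 nM STAT3 (G127-I722), 2 nM 5-FAM-GpYLPQTV-NH2 phosphopeptide, 10 mM HEPES pH 7.4 buffer, 1% DMSO.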

The target of assay [2] is T2, Recombinant STAT6 protein (STAT6 (W123-T658)) (Homo sapiens, UniProt P42226).
T2 construct: Recombinant STAT6 protein (STAT6 (W123-T658))
T2 sequence (P42226 123-658): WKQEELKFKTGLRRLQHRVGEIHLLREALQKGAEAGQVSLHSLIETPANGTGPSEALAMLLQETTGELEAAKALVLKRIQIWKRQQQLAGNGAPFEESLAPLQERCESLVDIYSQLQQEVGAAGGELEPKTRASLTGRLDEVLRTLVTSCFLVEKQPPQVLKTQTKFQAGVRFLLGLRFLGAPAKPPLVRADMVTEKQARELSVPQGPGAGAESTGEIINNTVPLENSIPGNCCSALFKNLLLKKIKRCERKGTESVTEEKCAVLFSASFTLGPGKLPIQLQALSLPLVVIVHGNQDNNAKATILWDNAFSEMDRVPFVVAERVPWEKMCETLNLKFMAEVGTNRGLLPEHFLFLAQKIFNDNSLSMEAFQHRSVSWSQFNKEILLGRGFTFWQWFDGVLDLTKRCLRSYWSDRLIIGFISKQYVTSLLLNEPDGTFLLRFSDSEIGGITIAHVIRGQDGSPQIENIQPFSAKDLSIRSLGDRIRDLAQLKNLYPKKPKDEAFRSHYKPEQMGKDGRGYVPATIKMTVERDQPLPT
Nature of the assay: STAT6 Fluorescence Polarization (FP) Assay. It counts as binding. Particulars: STAT6 (W123-T658) 250 nM, 45-minute incubation, read-out: STAT6 (FP assay IC50 class). The essentials: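 STAT6 (W123-T658) at 250 nM was mixed with 2 nM 5-FAM-labeled phosphotyrosine peptide probe in HEPES pH 7.4 buffer with NaCl, EDTA, Tween 20 and DTT, then added to serially diluted compounds at 1% DMSO final. Polarization was read after 45 min at room temperature; IC50 came from nonlinear regression of mP versus log concentration.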

The mark [3] stands for this setting: probe 5-FAM-ApYKPFQDLI-NH2 2 nM.

Read-outs that look alike come from different tables or passages of the source. A value given as a limit tells only on which side of the number the result lay.

T1 sequence (P40763 127-722): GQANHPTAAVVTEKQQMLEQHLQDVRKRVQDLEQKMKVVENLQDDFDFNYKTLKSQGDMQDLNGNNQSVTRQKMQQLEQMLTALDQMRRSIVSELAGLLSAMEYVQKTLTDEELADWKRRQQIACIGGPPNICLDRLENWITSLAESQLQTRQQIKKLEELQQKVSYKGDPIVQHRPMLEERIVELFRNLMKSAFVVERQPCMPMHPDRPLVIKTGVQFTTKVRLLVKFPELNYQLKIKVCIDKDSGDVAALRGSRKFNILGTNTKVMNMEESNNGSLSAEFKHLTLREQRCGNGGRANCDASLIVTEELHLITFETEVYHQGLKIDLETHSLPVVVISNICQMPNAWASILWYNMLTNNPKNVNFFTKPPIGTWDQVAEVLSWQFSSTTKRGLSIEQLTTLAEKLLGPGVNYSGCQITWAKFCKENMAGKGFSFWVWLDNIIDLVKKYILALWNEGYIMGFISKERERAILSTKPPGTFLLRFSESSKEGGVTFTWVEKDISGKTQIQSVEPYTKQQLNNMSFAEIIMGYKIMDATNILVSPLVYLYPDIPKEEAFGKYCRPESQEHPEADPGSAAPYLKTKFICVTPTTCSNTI

For the molecule `Cc1ccncc1C1CN(C(=O)[C@@H]2CC[C@@H]3C[C@H](C)C[C@H](NC(=O)c4cc5cc([C@H](F)P(=O)(O)O)ccc5s4)C(=O)N32)C1` (single isomer, unassigned) [Compound 740], the IC50 in assay [1] is less than 100 nM; in assay [2] (probe 5-FAM-Ap[…]-NH2 2 nM) it was 3000 to 30000 nM.

As to `O=C(N[C@H]1CCC[C@H]2CC[C@@H](C(=O)N3CC(c4cnccc4N4CCC4)C3)N2C1=O)c1cc2cc([C@@H](F)P(=O)(O)O)ccc2s1` (single isomer, unassigned) [Compound 741], the IC50 in assay [1] was less than 100 nM; in assay [2] (probe 5-FAM-Ap[…]-NH2 2 nM), 300 to 3000 nM.

In the case of `O=C(N[C@H]1CCC[C@H]2CC[C@@H](C(=O)N3CC(c4cnccc4N4CCC4)C3)N2C1=O)c1cc2cc([C@H](F)P(=O)(O)O)ccc2s1` (single isomer, unassigned) [Compound 742], the figures for the IC50 in assay [1] and in assay [2] (probe 5-FAM-Ap[…]-NH2 2 nM) were less than 100 nM and 300 to 3000 nM, respectively.

Turning to `O=C(N[C@H]1CCC[C@H]2CC[C@@H](C(=O)N3CC(c4cnccc4N4CCOCC4)C3)N2C1=O)c1cc2cc([C@@H](F)P(=O)(O)O)ccc2s1` (single isomer, unassigned) [Compound 745], the half-maximal inhibitory concentration (IC50) was less than 100 nM in assay [1] and 3000 to 30000 nM in assay [2] (probe 5-FAM-Ap[…]-NH2 2 nM).

For the molecule `O=C(N[C@H]1CCC[C@H]2CC[C@@H](C(=O)N3CC(c4cnccc4N4CCOCC4)C3)N2C1=O)c1cc2cc([C@H](F)P(=O)(O)O)ccc2s1` (single isomer, unassigned) [Compound 746], the results for the IC50 in assay [1] and in assay [2] (probe 5-FAM-Ap[…]-NH2 2 nM) were less than 100 nM and 3000 to 30000 nM, respectively.

In the case of `COc1ccncc1C1CN(C(=O)[C@@H]2CC[C@@H]3CCC[C@H](NC(=O)c4cc5cc([C@H](F)P(=O)(O)O)ccc5s4)C(=O)N32)C1` (single isomer, unassigned) [Compound 747], the 50% inhibitory concentration (IC50) in assay [1] is less than 100 nM; in assay [2] (probe 5-FAM-Ap[…]-NH2 2 nM), 3000 to 30000 nM.

With `CC(C)Oc1ccncc1C1CN(C(=O)[C@@H]2CC[C@@H]3C[C@@H](C)C[C@H](NC(=O)c4cc5cc([C@H](F)P(=O)(O)O)ccc5s4)C(=O)N32)C1` (single isomer, unassigned) [Compound 748], the values for the half-maximal inhibitory concentration (IC50) in assay [1] and in assay [2] (probe 5-FAM-Ap[…]-NH2 2 nM) were less than 100 nM and 3000 to 30000 nM, respectively.

In the case of `Cc1ccncc1C1CN(C(=O)[C@@H]2CC[C@@H]3C[C@H](C)C[C@H](NC(=O)c4cc5cc([C@@H](F)P(=O)(O)O)ccc5s4)C(=O)N32)C1` (single isomer, unassigned) [Compound 753], the values for the IC50 in assay [1] and in assay [2] (probe 5-FAM-Ap[…]-NH2 2 nM) were less than 100 nM and 3000 to 30000 nM, respectively.

Turning to `Cc1ccncc1C1CN(C(=O)[C@@H]2CC[C@@H]3CCC[C@H](NC(=O)c4cc5cc([C@@H](F)P(=O)(O)O)ccc5s4)C(=O)N32)C1` (single isomer, unassigned) [Compound 755], the half-maximal inhibitory concentration (IC50) in assay [1] is less than 100 nM; in assay [2] (probe 5-FAM-Ap[…]-NH2 2 nM), 3000 to 30000 nM.

As to `COc1ccncc1C1CN(C(=O)[C@@H]2CC[C@@H]3CCC[C@H](NC(=O)c4cc5cc([C@@H](F)P(=O)(O)O)ccc5s4)C(=O)N32)C1` (single isomer, unassigned) [Compound 756], the half-maximal inhibitory concentration (IC50) in assay [1] is less than 100 nM; in assay [2] (probe 5-FAM-Ap[…]-NH2 2 nM), 3000 to 30000 nM.

Take `CCOc1ccncc1C1CN(C(=O)[C@@H]2CC[C@@H]3CCC[C@H](NC(=O)c4cc5cc([C@@H](F)P(=O)(O)O)ccc5s4)C(=O)N32)C1` (single isomer, unassigned) [Compound 771]: the concentration for half-maximal inhibition (IC50) was less than 100 nM in assay [1] and 3000 to 30000 nM in assay [2] (probe 5-FAM-Ap[…]-NH2 2 nM).

As for `CCOc1ccncc1C1CN(C(=O)[C@@H]2CC[C@@H]3CCC[C@H](NC(=O)c4cc5cc([C@H](F)P(=O)(O)O)ccc5s4)C(=O)N32)C1` (single isomer, unassigned) [Compound 772], the IC50 was less than 100 nM in assay [1] and 3000 to 30000 nM in assay [2] (probe 5-FAM-Ap[…]-NH2 2 nM).

As to `C[C@H]1C[C@H]2CC[C@@H](C(=O)N3C[C@@H](C#N)[C@H](c4ccccc4)C3)N2C(=O)[C@@H](NC(=O)c2cc3cc(C(F)(F)P(=O)(O)O)ccc3s2)C1` (single isomer, unassigned) [Compound 782], the figures for the IC50 in assay [1] and in assay [2] (probe 5-FAM-Ap[…]-NH2 2 nM) were 100 to 1000 nM and 300 to 3000 nM, respectively.

`N#C[C@@H]1[C@@H](c2ccccc2)CN(C(=O)[C@@H]2CC[C@@H]3CCCC[C@H](NC(=O)c4ccc5ccc([C@@H](F)P(=O)(O)O)cc5c4)C(=O)N32)C12CC2` (single isomer, unassigned) [Compound 832]: the half-maximal inhibitory concentration (IC50) is 1000 to 10000 nM in assay [1] and not above 300 nM in assay [2] (probe 5-FAM-Ap[…]-NH2 2 nM).

Consider `N#C[C@@H]1[C@@H](c2cccnc2)CN(C(=O)[C@@H]2CC[C@@H]3CCC[C@H](NC(=O)c4cc5cc([C@H](F)P(=O)(O)O)ccc5s4)C(=O)N32)C12CC2` (single isomer, unassigned) [Compound 833], for which the IC50 was 1000 to 10000 nM in assay [1] and not above 300 nM in assay [2] (probe 5-FAM-Ap[…]-NH2 2 nM).

`N#C[C@@H]1[C@@H](c2ccccc2)CN(C(=O)[C@@H]2CC[C@@H]3CCCC[C@H](NC(=O)c4cc5cc([C@H](F)P(=O)(O)O)ccc5s4)C(=O)N32)C12CC2` (single isomer, unassigned) [Compound 835]: the IC50 in assay [1] is 1000 to 10000 nM; in assay [2] (probe 5-FAM-Ap[…]-NH2 2 nM) it was not above 300 nM.

In the case of `N#C[C@H]1[C@H](c2ccccc2)CN(C(=O)[C@@H]2CC[C@@H]3CCCC[C@H](NC(=O)c4cc5cc([C@@H](F)P(=O)(O)O)ccc5s4)C(=O)N32)C12CC2` (single isomer, unassigned) [Compound 836], the figures for the half-inhibitory concentration (IC50) in assay [1] and in assay [2] (probe 5-FAM-Ap[…]-NH2 2 nM) were 1000 to 10000 nM and not above 300 nM, respectively.

In the case of `N#C[C@@H]1[C@@H](c2cccnc2)CN(C(=O)[C@@H]2CC[C@@H]3CCC[C@H](NC(=O)c4cc5cc([C@@H](F)P(=O)(O)O)ccc5s4)C(=O)N32)C12CC2` (single isomer, unassigned) [Compound 837], the IC50 in assay [1] was 1000 to 10000 nM; in assay [2] (probe 5-FAM-Ap[…]-NH2 2 nM), not above 300 nM.

For `N#C[C@@H]1[C@@H](c2cccnc2)CN(C(=O)[C@@H]2CC[C@@H]3CCCC[C@H](NC(=O)c4cc5cc([C@H](F)P(=O)(O)O)ccc5s4)C(=O)N32)C12CC2` (single isomer, unassigned) [Compound 839], the values for the half-maximal inhibitory concentration (IC50) in assay [1] and in assay [2] (probe 5-FAM-Ap[…]-NH2 2 nM) were 1000 to 10000 nM and not above 300 nM, respectively.

Turning to `N#C[C@@H]1[C@@H](c2cccnc2)CN(C(=O)[C@@H]2CC[C@@H]3CCCC[C@H](NC(=O)c4cc5cc([C@H](F)P(=O)(O)O)ccc5s4)C(=O)N32)C12CC2` (single isomer, unassigned) [Compound 840], the 50% inhibitory concentration (IC50) is 1000 to 10000 nM in assay [1] and not above 300 nM in assay [2] (setting [3]).

Take `N#C[C@@H]1[C@@H](c2cncc(Cl)c2)CN(C(=O)[C@@H]2CC[C@@H]3CCC[C@H](NC(=O)c4cc5cc([C@H](F)P(=O)(O)O)ccc5s4)C(=O)N32)C12CC2` (single isomer, unassigned) [Compound 841]: the 50% inhibitory concentration (IC50) lay in the range of 1000 to 10000 nM in assay [1] and 300 to 3000 nM in assay [2] (probe 5-FAM-Ap[…]-NH2 2 nM).

As to `N#C[C@@H]1[C@@H](c2cncc(Cl)c2)CN(C(=O)[C@@H]2CC[C@@H]3CCC[C@H](NC(=O)c4cc5cc([C@H](F)P(=O)(O)O)ccc5s4)C(=O)N32)C12CC2` (single isomer, unassigned) [Compound 842], the half-maximal inhibitory concentration (IC50) is 1000 to 10000 nM in assay [1] and 300 to 3000 nM in assay [2] (setting [3]).

With `COc1cncc([C@@H]2CN(C(=O)[C@@H]3CC[C@@H]4CCC[C@H](NC(=O)c5cc6cc([C@H](F)P(=O)(O)O)ccc6s5)C(=O)N43)C3(CC3)[C@H]2C#N)c1` (single isomer, unassigned) [Compound 843], the half-inhibitory concentration (IC50) is 1000 to 10000 nM in assay [1] and 300 to 3000 nM in assay [2] (probe 5-FAM-Ap[…]-NH2 2 nM).

As for `COc1cncc([C@H]2CN(C(=O)[C@@H]3CC[C@@H]4CCC[C@H](NC(=O)c5cc6cc([C@@H](F)P(=O)(O)O)ccc6s5)C(=O)N43)C3(CC3)[C@@H]2C#N)c1` (single isomer, unassigned) [Compound 844], the IC50 in assay [1] was 1000 to 10000 nM; in assay [2] (probe 5-FAM-Ap[…]-NH2 2 nM), 300 to 3000 nM.
